In patent EP0411182A1, “Ascorbic acid derivative” (NIPPON HYPOX LABORATORIES INCORPORATED, priority 1989, dated 1991):

Assay: Effects on formazan formation in the xanthine-xanthine oxidase-Nitrotetrazolium Blue system
Type: biochemical
Conditions: for Inhibition ratio (%) of formazan formation: 0.05 M phosphoric acid buffer pH 7.8, 30°C
Method: Test example 2 (Effects on formazan formation in the xanthine-xanthine oxidase-Nitrotetrazolium Blue system)
Specimens were added to a 0.05 M phosphoric acid buffer solution (pH 7.8) containing xanthine, EDTA 2Na and Nitrotetrazolium Blue (NTB) so as to provide the respective final concentrations of 5x10⁻⁵ M, 1x10⁻⁴ M and 5x10⁻⁴ M and warmed at 30°C for 30 minutes. Xanthine oxidase (manufactured by Sigma Corp.) was added, and the resulting mixtures were warmed at 30°C for 10 minutes to colorimetrically determine formazan formed by superoxide anion radicals. The inhibition ratio of formazan formation was determined from the results at concentrations of 0.5 mM and 4 mM of each specimen.

COC(=O)COC1=C(O)[C@@H]([C@@H]2COC(C)(C)O2)OC1=O [Compound 206, L-5,6-O-isopropylidene-2-O-methylcarbomethylascorbic acid]
Inhibition ratio (%) of formazan formation (Concentration 0.5 mM): 17.8% | Inhibition ratio (%) of formazan formation (Concentration 4 mM): 55.5% | formazan formation (result in words) (summary of Table-4): remarkably inhibited formazan formation
